Source: patent US9409924B2, “Selective glycosidase inhibitors and uses thereof” (Alectos Therapeutics Inc., priority 2011, dated 2016)

How the values were obtained:
human O-GlcNAcase = human O-GlcNAcase (Homo sapiens (Human), UniProt O60502); experiment: Assay for determination of KI values for inhibition of O-GlcNAcase activity (fluorescence-based hOGA); assay type: biochemical; settings: purified human O-GlcNAcase, 4-Methylumbelliferyl N-acetyl-β-D-glucosaminide substrate, pH 7.0, Cheng-Prusoff
human O-GlcNAcase, sequence (O60502 whole entry): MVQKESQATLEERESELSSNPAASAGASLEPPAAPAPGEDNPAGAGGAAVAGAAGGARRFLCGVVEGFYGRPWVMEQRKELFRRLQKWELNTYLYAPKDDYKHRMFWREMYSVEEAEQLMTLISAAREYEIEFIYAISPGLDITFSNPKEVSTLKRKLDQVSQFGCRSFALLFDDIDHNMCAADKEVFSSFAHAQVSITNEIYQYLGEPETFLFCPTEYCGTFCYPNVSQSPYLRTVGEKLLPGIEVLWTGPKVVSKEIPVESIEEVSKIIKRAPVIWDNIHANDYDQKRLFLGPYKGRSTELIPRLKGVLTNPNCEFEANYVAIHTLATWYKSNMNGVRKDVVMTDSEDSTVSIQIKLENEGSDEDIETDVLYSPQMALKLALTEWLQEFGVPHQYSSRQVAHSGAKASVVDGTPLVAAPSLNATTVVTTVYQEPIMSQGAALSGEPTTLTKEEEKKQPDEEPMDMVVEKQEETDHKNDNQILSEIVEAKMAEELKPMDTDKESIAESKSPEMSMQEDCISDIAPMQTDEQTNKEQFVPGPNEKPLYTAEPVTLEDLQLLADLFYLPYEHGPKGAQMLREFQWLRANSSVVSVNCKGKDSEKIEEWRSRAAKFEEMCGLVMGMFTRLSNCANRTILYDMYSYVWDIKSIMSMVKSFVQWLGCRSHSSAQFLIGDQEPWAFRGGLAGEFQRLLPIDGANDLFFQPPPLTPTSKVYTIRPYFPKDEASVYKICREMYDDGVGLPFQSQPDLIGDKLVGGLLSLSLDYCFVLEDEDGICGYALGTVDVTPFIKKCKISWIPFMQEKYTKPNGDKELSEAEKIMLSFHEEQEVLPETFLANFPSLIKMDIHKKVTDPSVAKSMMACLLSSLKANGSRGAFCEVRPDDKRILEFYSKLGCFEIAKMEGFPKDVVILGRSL
Protocol: Assay for Determination of KI Values for Inhibition of O-GlcNAcase Activity
Experimental Procedure for Kinetic Analyses:
Enzymatic reactions were carried out in a reaction containing 50 mM NaH2PO4, 100 mM NaCl and 0.1% BSA (pH 7.0) using 2 mM 4-Methylumbelliferyl N-acetyl-β-D-glucosaminide dihydrate (Sigma M2133) dissolved in ddH2O, as a substrate. The amount of purified human O-GlcNAcase enzyme used in the reaction was 0.7 nM. Test compound of varying concentrations was added to the enzyme prior to initiation of the reaction. The reaction was performed at room temperature in a 96-well plate and was initiated with the addition of substrate. […] The slope of product production was determined for each concentration of compound tested and plotted, using standard curve fitting algorithms for sigmoidal dose response curves. The values for a four parameter logistic curve fit of the data were determined.

[1] = Assay for determination of apparent permeability (Papp), bi-directional transport; assay type: in vitro ADME; settings: pig, LLC-PK1; 1 μM test compound, t=3 h, average of A to B and B to A; read-out: Papp LLC-PK1 cells
Protocol: Assay for Determination of Apparent Permeability (Papp)
Bi-directional transport was evaluated in LLC-PK1 cells in order to determine apparent permeability (Papp). LLC-PK1 cells can form a tight monolayer and therefore can be used to assess vectorial transport of compounds from basolateral to apical (B→A) and from apical to basolateral (A→B).
To determine Papp, LLC-PK1 cells were cultured in 96-well transwell culture plates (Millipore). Solutions containing the test compounds (1 μM) were prepared in Hank's Balanced Salt Solution with 10 mM HEPES. Substrate solution (150 μL) was added to either the apical (A) or the basolateral (B) compartment of the culture plate, and buffer (150 μL) was added to the compartment opposite to that containing the compound. At t=3 h, 50 μL samples were removed from both sides of monolayers dosed with test compound and placed in 96 well plates, scintillant (200 μL) or internal standard (100 μL labetolol 1 μM) was added to the samples and concentration was determined by liquid scintillation counting in a MicroBeta Wallac Trilux scintillation counter (Perkin Elmer Life Sciences, Boston, Mass.) or by LCMS/MS (Applied Biosystems SCIEX API 5000 triple quadruple mass spectrometer). [^3H]Verapamil (1 μM) was used as the positive control. The experiment was performed in triplicate.
[formula] Where: Volume of Receptor Chamber was 0.15 mL; Area of membrane was 0.11 cm^2; the Initial Concentration is the sum of the concentration measured in the donor plus concentration measured in receiver compartments at t=3 h; A in Concentration is concentration in the receiver compartment at 3 h; and Δ in Time is the incubation time (3×60×60=10800 s). Papp was expressed as 10^−6 cm/s.

O-GlcNAcase = O-GlcNAcase (Rattus norvegicus (Rat), UniProt Q8VIJ5); experiment: Cell-based ELISA of O-GlcNAcylated protein (RL-2 antibody) for cellular activity of O-GlcNAcase inhibitors; settings: rat PC-12 cells, 24 h treatment, O-GlcNAcylated protein detected with RL-2 antibody
O-GlcNAcase, sequence (Q8VIJ5 whole entry): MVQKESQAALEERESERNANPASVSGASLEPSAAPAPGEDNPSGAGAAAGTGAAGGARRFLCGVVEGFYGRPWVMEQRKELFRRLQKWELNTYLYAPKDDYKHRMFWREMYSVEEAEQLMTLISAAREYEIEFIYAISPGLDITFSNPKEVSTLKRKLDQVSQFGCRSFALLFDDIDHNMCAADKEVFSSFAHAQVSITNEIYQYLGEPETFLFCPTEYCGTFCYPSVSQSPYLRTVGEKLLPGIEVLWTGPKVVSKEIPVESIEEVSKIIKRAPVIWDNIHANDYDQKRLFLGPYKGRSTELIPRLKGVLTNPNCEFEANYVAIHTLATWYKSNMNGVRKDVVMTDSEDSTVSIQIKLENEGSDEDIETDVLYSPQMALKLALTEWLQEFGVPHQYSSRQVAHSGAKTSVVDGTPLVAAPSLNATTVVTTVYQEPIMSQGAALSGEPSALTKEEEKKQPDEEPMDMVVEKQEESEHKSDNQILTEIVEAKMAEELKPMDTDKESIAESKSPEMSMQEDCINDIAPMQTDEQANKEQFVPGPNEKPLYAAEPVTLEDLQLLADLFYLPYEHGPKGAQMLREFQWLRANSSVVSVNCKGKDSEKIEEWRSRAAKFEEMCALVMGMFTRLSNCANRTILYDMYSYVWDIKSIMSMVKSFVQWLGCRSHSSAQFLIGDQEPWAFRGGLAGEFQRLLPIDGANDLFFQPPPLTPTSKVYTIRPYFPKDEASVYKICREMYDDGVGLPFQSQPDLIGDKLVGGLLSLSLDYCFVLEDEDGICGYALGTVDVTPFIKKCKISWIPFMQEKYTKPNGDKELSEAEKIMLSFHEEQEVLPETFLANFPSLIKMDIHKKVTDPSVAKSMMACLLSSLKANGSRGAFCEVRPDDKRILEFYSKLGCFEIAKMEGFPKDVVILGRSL
Description: Assay for Determination of Cellular Activity for Compounds that Inhibit O-GlcNAcase Activity
Inhibition of O-GlcNAcase, which removes O-GlcNAc from cellular proteins, results in an increase in the level of O-GlcNAcylated protein in cells. An increase in O-GlcNAcylated protein can be measured by an antibody, such as RL-2, that binds to O-GlcNAcylated protein. The amount of O-GlcNAcylated protein:RL2 antibody interaction can be measured by enzyme linked immunosorbant assay (ELISA) procedures.
A variety of tissue culture cell lines, expressing endogenous levels of O-GlcNAcase, can be utilized; examples include rat PC-12, and human U-87, or SK—N—SH cells. […] Compounds to be tested were dissolved in DMSO, either 2 or 10 mM stock solution, and then diluted with DMSO and water in a two-step process using a Tecan workstation. […] To prepare a cell lysate, the media from compound treated cells was removed, the cells were washed once with phosphate buffered saline (PBS) and then lysed for 5 minutes at room temperature in 50 μL of Phosphosafe reagent (Novagen Inc, Madison, Wis.) with protease inhibitors and PMSF. The cell lysate was collected and transferred to a new plate, which was then either coated to assay plates directly or frozen −80° C. until used in the ELISA procedure. If desired, the total protein concentration of samples was determined using 20 μL of the sample using the BCA method.
The ELISA portion of the assay was performed in a black Maxisorp 96-well plate that was coated overnight at 4° C. with 100 μL/well of the cell lysate (1:10 dilution of the lysate with PBS containing protease inhibitors, phosphatase inhibitors, and PMSF). […]
The amount of O-GlcNAcylated protein, as detected by the ELISA assay, was plotted for each concentration of test compound using standard curve fitting algorithms for sigmoidal dose response curves. The values for a four parameter logistic curve fit of the data were determined, with the inflection point of the curve being the potency value for the test compound.

CCNC1=N[C@@H]2[C@@H](F)[C@H](O)[C@@H]([C@H](C)O)O[C@@H]2S1 [Example 3, (3aR,5R,6R,7R,7aR)-2-(ethylamino)-7-fluoro-5-((S)-1-hydroxyethyl)-5,6,7,7a-tetrahydro-3aH-pyrano[3,2-d]thiazol-6-ol]
Ki (human O-GlcNAcase): 0.012 µM
Papp at 3 h, 1 μM [1]: 5.2 ×10⁻⁶ cm/s

CC[C@H]1O[C@@H]2SC(NC)=N[C@@H]2[C@@H](F)[C@@H]1O [Example 15, (3aR,5R,6R,7R,7aR)-5-ethyl-7-fluoro-2-(methylamino)-5,6,7,7a-tetrahydro-3aH-pyrano[3,2-d]thiazol-6-ol]
Ki (human O-GlcNAcase): 0.156 µM
Papp at 3 h, 1 μM [1]: 34 ×10⁻⁶ cm/s

CCNC1=N[C@@H]2C[C@H](O)[C@@H]([C@H](C)O)O[C@@H]2S1 [Example 13, (3aR,5R,6S,7aR)-2-(ethylamino)-5-((S)-1-hydroxyethyl)-5,6,7,7a-tetrahydro-3aH-pyrano[3,2-d]thiazol-6-ol]
Ki (human O-GlcNAcase): 0.026 µM
Papp at 3 h, 1 μM [1]: 2.3 ×10⁻⁶ cm/s

CCNC1=N[C@@H]2[C@@H](F)[C@H](O)[C@@H]([C@@H](O)C(F)(F)F)O[C@@H]2S1 [Example 7, (3aR,5S,6R,7R,7aR)-2-(ethylamino)-7-fluoro-5-((R)-2,2,2-trifluoro-1-hydroxyethyl)-5,6,7,7a-tetrahydro-3aH-pyrano[3,2-d]thiazol-6-ol]
Ki (human O-GlcNAcase): 0.016 µM
Papp at 3 h, 1 μM [1]: 15 ×10⁻⁶ cm/s

O[C@H]1[C@H](F)[C@H]2N=C(N3CCC3)S[C@H]2O[C@@H]1[C@@H](O)C(F)(F)F [Example 32, (3aR,5S,6R,7R,7aR)-2-(azetidin-1-yl)-7-fluoro-5-((R)-2,2,2-trifluoro-1-hydroxyethyl)-5,6,7,7a-tetrahydro-3aH-pyrano[3,2-d]thiazol-6-ol]
Ki (human O-GlcNAcase): 0.013 µM
Papp at 3 h, 1 μM [1]: 21 ×10⁻⁶ cm/s

CNC1=N[C@@H]2[C@@H](F)[C@H](O)[C@@H]([C@@H](O)C(F)(F)F)O[C@@H]2S1 [Example 9, (3aR,5S,6R,7R,7aR)-7-fluoro-2-(methylamino)-5-((R)-2,2,2-trifluoro-1-hydroxyethyl)-5,6,7,7a-tetrahydro-3aH-pyrano[3,2-d]thiazol-6-ol]
Ki (human O-GlcNAcase): 0.0035 µM
EC50 (O-GlcNAcase): 0.074 µM
Papp at 3 h, 1 μM [1]: 6.6 ×10⁻⁶ cm/s

CNC1=N[C@@H]2[C@H](F)[C@H](O)[C@@H]([C@@H](O)C(F)(F)F)O[C@@H]2S1 [Example 38, (3aR,5S,6R,7S,7aR)-7-fluoro-2-(methylamino)-5-((R)-2,2,2-trifluoro-1-hydroxyethyl)-5,6,7,7a-tetrahydro-3aH-pyrano[3,2-d]thiazol-6-ol]
Ki (human O-GlcNAcase): 0.0007 µM
EC50 (O-GlcNAcase): 0.0091 µM
Papp at 3 h, 1 μM [1]: 3.7 ×10⁻⁶ cm/s

CN(C)C1=N[C@@H]2[C@@H](F)[C@H](O)[C@@H]([C@@H](O)C(F)(F)F)O[C@@H]2S1 [Example 11, (3aR,5S,6R,7R,7aR)-2-(dimethylamino)-7-fluoro-5-((R)-2,2,2-trifluoro-1-hydroxyethyl)-5,6,7,7a-tetrahydro-3aH-pyrano[3,2-d]thiazol-6-ol]
Ki (human O-GlcNAcase): 0.0095 µM
Papp at 3 h, 1 μM [1]: 23 ×10⁻⁶ cm/s

CC[C@H]1O[C@@H]2SC(NC)=N[C@@H]2[C@H](F)[C@@H]1O [Example 42, (3aR,5R,6R,7S,7aR)-5-ethyl-7-fluoro-2-(methylamino)-5,6,7,7a-tetrahydro-3aH-pyrano[3,2-d]thiazol-6-ol]
Ki (human O-GlcNAcase): 0.05 µM

CNC1=N[C@@H]2[C@H](F)[C@H](O)[C@@H](C(C)(C)O)O[C@@H]2S1 [Example 43, (3aR,5S,6R,7S,7aR)-7-fluoro-5-(2-hydroxypropan-2-yl)-2-(methylamino)-5,6,7,7a-tetrahydro-3aH-pyrano[3,2-d]thiazol-6-ol]
Ki (human O-GlcNAcase): 0.39 µM
Papp at 3 h, 1 μM [1]: 2.4 ×10⁻⁶ cm/s

CNC1=N[C@@H]2C[C@H](O)[C@@H]([C@@H](O)C(F)(F)F)O[C@@H]2S1 [Example 20, (3aR,5S,6S,7aR)-2-(methylamino)-5-((R)-2,2,2-trifluoro-1-hydroxyethyl)-5,6,7,7a-tetrahydro-3aH-pyrano[3,2-d]thiazol-6-ol]
Ki (human O-GlcNAcase): 0.0035 µM
EC50 (O-GlcNAcase): 0.05 µM
Papp at 3 h, 1 μM [1]: 3.4 ×10⁻⁶ cm/s

C[C@H](O)[C@H]1O[C@@H]2SC(N(C)C)=N[C@@H]2[C@@H](F)[C@@H]1O [Example 5, (3aR,5R,6R,7R,7aR)-2-(dimethylamino)-7-fluoro-5-((S)-1-hydroxyethyl)-5,6,7,7a-tetrahydro-3aH-pyrano[3,2-d]thiazol-6-ol]
Ki (human O-GlcNAcase): 0.016 µM
Papp at 3 h, 1 μM [1]: 14 ×10⁻⁶ cm/s

CCNC1=N[C@@H]2[C@H](F)[C@H](O)[C@@H]([C@@H](C)O)O[C@@H]2S1 [Example 37, (3aR,5R,6R,7S,7aR)-2-(ethylamino)-7-fluoro-5-((R)-1-hydroxyethyl)-5,6,7,7a-tetrahydro-3aH-pyrano[3,2-d]thiazol-6-ol]
Ki (human O-GlcNAcase): 0.266 µM
Papp at 3 h, 1 μM [1]: 2.1 ×10⁻⁶ cm/s

CNC1=N[C@@H]2C[C@H](O)[C@@H]([C@@](C)(O)C(F)(F)F)O[C@@H]2S1 [Example 29, (3aR,5S,6S,7aR)-2-(methylamino)-5-((R)-1,1,1-trifluoro-2-hydroxypropan-2-yl)-5,6,7,7a-tetrahydro-3aH-pyrano[3,2-d]thiazol-6-ol]
Ki (human O-GlcNAcase): 0.492 µM

CNC1=N[C@@H]2[C@@H](F)[C@H](O)[C@@H]([C@H](C)O)O[C@@H]2S1 [Example 1, (3aR,5R,6R,7R,7aR)-7-fluoro-5-((S)-1-hydroxyethyl)-2-(methylamino)-5,6,7,7a-tetrahydro-3aH-pyrano[3,2-d]thiazol-6-ol]
Papp at 3 h, 1 μM [1]: 3.3 ×10⁻⁶ cm/s

CNC1=N[C@@H]2[C@H](F)[C@H](O)[C@@H]([C@H](C)O)O[C@@H]2S1 [Example 34, (3aR,5R,6R,7S,7aR)-7-fluoro-5-((S)-1-hydroxyethyl)-2-(methylamino)-5,6,7,7a-tetrahydro-3aH-pyrano[3,2-d]thiazol-6-ol]
Papp at 3 h, 1 μM [1]: 1.9 ×10⁻⁶ cm/s
